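Assay format: 96-well plates, 48-hour exposure. At the GI50, growth is halved.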 The source made the active and inactive calls. Rule as the data show it: active = GI50 up to about 1.1 µM and inactive = higher.

Common to all, as to assay: NCI anticancer screen, dose series, 48 h
In experiment [1] the test system is 786-0.
In experiment [2] the test system is HCC 2998.
In experiment [3] the test system is HCT-116.
The test system of experiment [4] is HCT-15.
Experiment [5] deals with HOP-62.
The test system of experiment [6] is IGROV-1.
For experiment [7], the system named is K562.
Experiment [8] relates to MDA-N.
Experiment [9] deals with NCI-H522.
Experiment [10] concerns OVCAR-3.
Experiment [11] concerns OVCAR-4.
In experiment [12] the test system is OVCAR-5.
Experiment [13] has as its system SF-268.
The test system of experiment [14] is SF-295.
Experiment [15] concerns SF-539.
In experiment [16] the test system is SN12C.
Experiment [17] concerns SNB-75.
In experiment [18] the test system is U-251.
For experiment [19], the system named is UACC-62.

Take `O=C(NCCc1ccccc1)c1c(O)nc2ccccc2c1O`: the GI50 is > 100 µM (inactive) in experiment [1]; > 100 µM (inactive) in experiment [2]; > 100 µM (inactive) in experiment [3]; > 100 µM in experiment [4]; > 100 µM (inactive) in [5]; > 100 µM (inactive) in experiment [6]. Also, the GI50 in [7], in [8], in experiment [9], in [10], in [11] and in experiment [12] was > 100 µM (inactive) throughout. The GI50 in experiment [13], in experiment [14], in experiment [15], in experiment [16], in experiment [17] and in experiment [18] was > 100 µM (inactive) each time.

For `COc1cc(C/N=c2/nc(N(C)C)ss2)cc(OC)c1OC`, the GI50 in [1] is 3.24 µM (inactive); in [2], > 10 µM (inactive); in experiment [3], 8.85 µM (inactive); in experiment [4], > 10 µM; in experiment [5], > 10 µM (inactive); in [6], > 10 µM (inactive). The GI50 in experiment [7] is 1.46 µM (inactive); in experiment [8], > 10 µM (inactive); in experiment [9], > 10 µM (inactive); in [10] it was > 10 µM (inactive); in experiment [11], > 9.27 µM (inactive); in experiment [12], 3.37 µM (inactive). The GI50 in experiment [13], in [14], in experiment [15], in experiment [16], in experiment [17] and in experiment [18] was > 10 µM (inactive) throughout. Further, in [19], the GI50 is > 10 µM (inactive).

`CC1=C(C)C(=O)OC(C(C)(O)C2(O)CCC3(O)C4CC(Cl)C5(O)C(O)C=CC(=O)C5(C)C4CCC32C)C1` (centres undefined): the GI50 in experiment [1] was 32.3 µM (inactive); in experiment [2], 27.1 µM (inactive); in [3], 19.1 µM (inactive); in [4], 28.7 µM; in [5], > 100 µM (inactive); in experiment [6], 49.3 µM (inactive). Also, the GI50 is 12.3 µM (inactive) in experiment [7]; 20 µM (inactive) in experiment [8]; 10.8 µM (inactive) in experiment [9]; 52.8 µM (inactive) in experiment [10]; 57.4 µM (inactive) in [11]; > 100 µM (inactive) in [12]. Moreover, the GI50 was 48.1 µM (inactive) in [13]; 30.3 µM (inactive) in [14]; 28.2 µM (inactive) in [15]; 61 µM (inactive) in experiment [16]; 4.25 µM (inactive) in [17]; 37.5 µM (inactive) in [18]. The GI50 in experiment [19] is 9.1 µM (inactive).

Take `COc1cc(/C=C2\CC3C4CC=C5C[C@@H](O)CC[C@]5(C)C4CC[C@]3(C)\C2=N\O)cc(OC)c1OC` (some centres undefined): the GI50 in experiment [1] was 4.66 µM (inactive); in [2], 6.34 µM (inactive); in [3], 4.05 µM (inactive); in experiment [4] it was 3.88 µM; in [5], 19.6 µM (inactive); in [6] it was 13 µM (inactive). For the same compound, the GI50 is 34.4 µM (inactive) in experiment [7]; 6.37 µM (inactive) in experiment [8]; 4.93 µM (inactive) in [9]; 7.29 µM (inactive) in experiment [10]; 3.94 µM (inactive) in experiment [11]; 10.3 µM (inactive) in [12]. Also, the GI50 was 8.02 µM (inactive) in [13]; 3.02 µM (inactive) in [14]; 6.25 µM (inactive) in [15]; 7.13 µM (inactive) in experiment [16]; 9.2 µM (inactive) in experiment [17]; 6.28 µM (inactive) in experiment [18]. The GI50 in experiment [19] is 9.06 µM (inactive).

Regarding `N#CC12CC=C(c3ccccc3)N=C1NC(c1ccccc1)=CC2` (centres undefined), the GI50 in experiment [1] was > 100 µM (inactive); in [2] it was > 100 µM (inactive); in experiment [3], 47 µM (inactive); in [4] it was 69.7 µM; in experiment [5], > 100 µM (inactive); in experiment [6], > 100 µM (inactive). Besides, the GI50 is 31.6 µM (inactive) in experiment [7]; 37.3 µM (inactive) in experiment [8]; 46.7 µM (inactive) in experiment [9]; > 100 µM (inactive) in experiment [10]; 29.7 µM (inactive) in [11]; > 100 µM (inactive) in [12]. Further, the GI50 in experiment [13] is > 100 µM (inactive); in [14], 57.7 µM (inactive); in [15] it was > 100 µM (inactive); in [16], > 100 µM (inactive); in experiment [17], 49 µM (inactive); in experiment [18], 85.1 µM (inactive). For the same compound, in experiment [19], the GI50 is 86.7 µM (inactive).

As for `Cc1ccc2c(c1)C(=O)C(C1OC(=O)c3ccccc31)C2` (centres undefined), the GI50 in [1] is > 100 µM (inactive); in experiment [2], > 100 µM (inactive); in [3] it was 70.3 µM (inactive); in experiment [4], 42.8 µM; in experiment [5], > 100 µM (inactive); in experiment [6], > 100 µM (inactive). Further, the GI50 is 97.3 µM (inactive) in experiment [7]; > 100 µM (inactive) in [8]; 83.4 µM (inactive) in experiment [9]; 91 µM (inactive) in experiment [10]; > 100 µM (inactive) in [11]; > 100 µM (inactive) in experiment [12]. Further, the GI50 in experiment [13] is > 100 µM (inactive); in experiment [14] it was > 100 µM (inactive); in experiment [15] it was 52 µM (inactive); in experiment [16], 92.7 µM (inactive); in experiment [17], > 100 µM (inactive); in experiment [18] it was 61 µM (inactive). In addition, the GI50 in experiment [19] was 96.2 µM (inactive).

Consider `CC1(C)O[C@@H]2[C@@H]3OC(=O)C[C@@H]3[C@@H](COCc3ccccc3)[C@@H]2O1`, for which the GI50 was > 100 µM (inactive) in experiment [1]; > 100 µM (inactive) in experiment [2]; > 100 µM (inactive) in experiment [3]; > 100 µM in experiment [4]; > 100 µM (inactive) in [5]; > 100 µM (inactive) in [6]. Besides, the GI50 in experiment [7], in experiment [8], in experiment [9], in experiment [10], in experiment [11] and in experiment [12] was > 100 µM (inactive) throughout. For the same compound, the GI50 in experiment [13], in [14], in experiment [15], in experiment [16], in experiment [17] and in experiment [18] was > 100 µM (inactive) each time. Besides, the GI50 in [19] is > 100 µM (inactive).

As for `CCc1n[nH]c(=O)n1N1C(=O)C2CC=CCC2C1=O` (centres undefined), the GI50 is > 100 µM (inactive) in experiment [1]; > 100 µM (inactive) in experiment [2]; > 100 µM (inactive) in [3]; > 100 µM in experiment [4]; > 100 µM (inactive) in experiment [5]; > 100 µM (inactive) in experiment [6]. Besides, the GI50 in experiment [7], in experiment [8], in experiment [9], in experiment [10], in experiment [11] and in [12] was > 100 µM (inactive) in each case. In addition, the GI50 in experiment [13] is > 100 µM (inactive); in [14] it was > 100 µM (inactive); in [15], > 100 µM (inactive); in experiment [16], > 100 µM (inactive); in [17], 39.1 µM (inactive); in experiment [18] it was > 100 µM (inactive). Also, in experiment [19], the GI50 was > 100 µM (inactive).

For `CN1C(=O)c2c(c3c4ccccc4n(C4OC(CO)C(O)C(O)C4O)c3c3[nH]c4ccccc4c23)C1=O` (centres undefined), the GI50 is 2.67 µM (inactive) in [1]; 2.07 µM (inactive) in experiment [2]; 0.718 µM (active) in [3]; 4.82 µM in experiment [4]; 2.93 µM (inactive) in experiment [5]; 0.9 µM (active) in [6]. For the same compound, the GI50 in experiment [7] was 0.736 µM (active); in [8], 2.14 µM (inactive); in experiment [9], 0.321 µM (active); in experiment [10], 2.02 µM (inactive); in experiment [11] it was 2.37 µM (inactive); in [12], 3.22 µM (inactive). Further, the GI50 in [13] was 0.541 µM (active); in experiment [14] it was 3.63 µM (inactive); in [15], 1.36 µM (inactive); in experiment [16], 2.82 µM (inactive); in experiment [17] it was 3.95 µM (inactive); in experiment [18], 0.681 µM (active). Further, the GI50 in [19] was 1.46 µM (inactive).

As to `CSCCCNC(=O)c1csc(-c2csc(CCNC(=O)CNC(=O)CNC(=O)OC(C)(C)C)n2)n1`, the GI50 in experiment [1] is > 100 µM (inactive); in [2], > 100 µM (inactive); in [3], > 100 µM (inactive); in experiment [4], > 100 µM; in experiment [5], > 100 µM (inactive); in [6], > 100 µM (inactive). Also, the GI50 in experiment [7], in [8], in [9], in [10], in [11] and in experiment [12] was > 100 µM (inactive) throughout. In addition, the GI50 in experiment [13] was > 100 µM (inactive); in [14], > 100 µM (inactive); in experiment [15], > 100 µM (inactive); in experiment [16], > 100 µM (inactive); in experiment [17], 37.2 µM (inactive); in experiment [18], > 100 µM (inactive). For the same compound, in [19], the GI50 was > 100 µM (inactive).
